Measured values from publication PMC8541546, “Identification of HLA-A2-Restricted Mutant Epitopes from Neoantigens of Esophageal Squamous Cell Carcinoma” (Vaccines, 2021).

Columns and labels:
KYSE140-MUT cells [1] = assay: Cytotoxicity assay (Cell Trace Far Red) of CTLs from immunized Tg mice; assay type: in vivo, HLA-A2.1/K^b Tg mice; conditions: KYSE140-MUT group, E/T of 80:1, 4 h
Description: (§1) To investigate whether neoepitopes could induce a peptide-specific T cell response in vivo, HLA-A2.1/K^b Tg mice were used and immunized according to the procedure de-scribed previously. In brief, mutant peptides or WH-mutant peptides (100 μg per mouse) with CpG-ODN 1826 (30 μg per mouse) were injected s.c. in the back of HLA-A2.1/K^b Tg mice (five mice per group, randomly grouped) once a week for three weeks. The normal saline (NS) group was immunized s.c. only with CpG ODN 1826 (30 μg/mouse) once a week for three weeks. Five days after the last injection, spleen lymphocytes were isolated and cultured at the concentration of 5 × 10^6 cells/mL in RPMI 1640 medium. These cells were induced by the same mutant peptides (10 μg/mL) that were used for in vivo stimulation and mIL-2 (30 U/mL) for a week. Intracellular cytokine staining assay (ICS) and cytotoxic assay (E: T ratios = 20:1, 40:1, 80:1) were performed after a week induced in vitro [22].
The cytotoxicity of peptide-specific T cells stimulated by mutant peptides was tested by using Cell Trace Far Red (Thermo Scientific, USA). Transfected cells were suspended in PBS (1 × 10^6 cells/mL) and labelled with Cell Trace Far Red as follows: Control target cells and test target cells were marked by 50 μM and 1 mM Cell Trace Far Red, respectively, at 37 °C for 20 min, protected from light. After incubation, target cells were washed with complete media at 37 °C for 5 min. […] Subsequently, test target cells were mixed with control target cells in a tube, washed once, and analyzed by flow cytometry. Specific lysis (%) = (numbers of control target cells—numbers of test target cells)/numbers of control target cells × 100% [28, 29], where, for tumor cells, the control target cells refer to KYSE140-WT cells marked with 50 μM Cell Trace Far Red, and the test target cell refers to KYSE140-WT or KYSE140-MUT cells marked with 1 mM Cell Trace Far Red, respectively (peptide-specific T cells generated from donors G–K’s PBMCs in vitro or generated from spleen lymphocytes of HLA-A2.1/K^b Tg mice in vivo). […]

KYSE140-MUT cells [2] = assay: Intracellular staining (granzyme B) of CTLs from immunized Tg mice; assay type: in vivo, HLA-A2.1/K^b Tg mice; conditions: 100 μg/mouse s.c. with CpG ODN 1826 once a week for three weeks; spleen lymphocytes re-stimulated with MUT peptide; KYSE140-MUT target cells; n = 5 per group
Description: as §1
To test the MUT peptides stimulation of CTL response in vivo, peptide-specific T cells induced from Tg mice were co-cultured with tumor cell lines transfected with WT or MUT minigenes, as described in the in vitro assay. These T cells were marked by surface marker antibodies anti-mouse CD3 and CD8α before fixation and permeabilization. Intracellular cytokines were marked by anti-mouse IFN-γ or anti-mouse granzyme B, respectively, and analyzed by flow cytometry (BD FACSCelesta™, USA).

KYSE140-MUT cells [3] = assay: Intracellular cytokine assay with minigene-transfected tumor cells in vitro; assay type: cell-based, human; conditions: donors G–K; KYSE140/KYSE150 transfected with WT or MUT minigene; IFN-γ and granzyme B
Description: DCs involve and play an important role in initiating CD8^+ T cell response. Consequently, ten HLA-A2^+ healthy donors’ PBMCs were isolated, autologous DCs were generated, and CTLs were induced according to the procedure described previously. In brief, PBMCs were seeded at a density of 5 × 10^6 cells/well in a 6-well plate, and after 3 h, the non-adherent cells were removed and cryopreserved for future incubation with mature autologous DCs. Differentiation of the adherent cells into dendritic cells was induced by GM-CSF (100 ng/mL, #300-03, PeproTech, Rocky Hill, NJ, USA) and IL-4 (100 ng/mL; #200-04, PeproTech, USA), with replenishment every 2 days. On day 5, maturation of DCs was induced using 100 ng/mL LPS (#L4516, Sigma-Aldrich, St. Louis, MO, USA), and maturation was checked on day 8 by flow cytometry (BD FACSCelesta™) using markers for anti-human HLA-DR, anti-human CD80, and anti-human CD86. Then, mature DCs (1 × 10^5) were pulsed with each 10 μg /mL individual peptide or no peptides (control) for 2 h at 37 °C. Next, peptide-pulsed DCs were used to prime the previously cryopreserved autologous peripheral blood lymphocytes (PBLs) at a DC/PBL ratio of 1:10 using complete RPMI-1640 media supplemented with 100 IU/mL rhIL-2 (#200-02, PeproTech, USA) and 10 ng/mL rhIL-7 (#200-07, PeproTech, USA). Half of the feeding medium was replenished every 2 days. After 7 days, PBLs were restimulated with freshly pulsed autologous DCs every 7 days.
Then two vectors were transduced into KYSE140 (HLA-A2^+) and KYSE150 (HLA-A2^−) to get KYSE140-MUT (HLA-A2^+, MUT peptide^+), KYSE140-WT (HLA-A2^+, MUT peptide^−), KYSE150-MUT (HLA-A2^−, MUT peptide^+) and KYSE150-WT (HLA-A2^−, MUT peptide^−) cells (see Supplementary Materials for details).
As for the transfected cells serving as target cells in the in vitro investigation, peptide-specific T cells (from HLA-A2^+ healthy donors G–K) induced by MUT peptides were co-cultured with tumor cell lines transfected with WT or MUT minigenes in IMDM medium in the presence of BFA for 5 h. […]

Sequence | lysis rate (specific lysis) (KYSE140-MUT cells [1]) | granzyme B expression of CTLs (KYSE140-MUT cells [2]) | processing and presentation of MUT peptide by transfected cells, recognized by CTLs (KYSE140-MUT cells [3])
QVTDFLAPL [PCLO-E4090Q] | 76.7% | 1.5% | endogenously processed and presented by transfected cells
LLGPNSFEV [TP53-R267P] | 71.5% | 0.7% | endogenously processed and presented by transfected cells
ILWRQDINL [NFE2L2-D13N] | 69.5% | 2.3% | endogenously processed and presented by transfected cells
